Data on 1 molecule can be found in ChEMBL document CHEMBL4425158, “Synthesis, structure-activity relationships and biological evaluation of 4,5,6,7-tetrahydropyrazolopyrazines as metabotropic glutamate receptor 5 negative allosteric modulators” (Bioorg Med Chem Lett, 2016).

pIC50: −log10 of the molar value. Values after ≈ are worked out from the molar mass of the structure shown.

For data set [1], the target named is Metabotropic glutamate receptor 5 (Homo sapiens, UniProt P41594). Briefly: Negative allosteric modulation of human recombinant mGluR5 expressed in HEK293 cells assessed as L-glutamate-induced intracellular calcium mobilization incubated for 20 mins before L-glutamate addition. It is filed as functional, cell-based.
A short description of data set [2]: Aqueous solubility of the compound at pH 1.2. Format: physicochemical.
Another data set has as its target T1, Cytochrome P450 2A6 (Homo sapiens, UniProt P11509).
T1 sequence (P11509 whole entry): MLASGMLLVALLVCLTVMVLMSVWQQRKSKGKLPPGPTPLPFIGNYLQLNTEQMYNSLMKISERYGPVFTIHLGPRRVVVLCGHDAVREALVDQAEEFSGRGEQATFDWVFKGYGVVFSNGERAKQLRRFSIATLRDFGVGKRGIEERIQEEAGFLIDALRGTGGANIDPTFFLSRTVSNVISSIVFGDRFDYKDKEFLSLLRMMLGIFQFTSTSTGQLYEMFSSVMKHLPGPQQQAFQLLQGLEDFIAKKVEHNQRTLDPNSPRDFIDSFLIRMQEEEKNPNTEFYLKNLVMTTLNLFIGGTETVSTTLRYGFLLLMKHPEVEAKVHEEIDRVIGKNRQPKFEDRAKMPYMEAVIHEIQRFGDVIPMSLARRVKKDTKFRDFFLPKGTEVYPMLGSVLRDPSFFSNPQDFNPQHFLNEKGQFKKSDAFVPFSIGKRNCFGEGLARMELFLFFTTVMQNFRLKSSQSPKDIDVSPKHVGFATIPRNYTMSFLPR
Nature of the data set: Inhibition of CYP2A6 in human liver microsomes using coumarin as substrate after 10 mins in presence of NADPH by LC/MS/MS analysis. It is filed as ADME.

A further data set deals with Cytochrome P450 2C19 (Homo sapiens, UniProt P33261). Nature of the data set: Inhibition of CYP2C19 in human liver microsomes using (S)-mephenytoin as substrate after 10 mins in presence of NADPH by LC/MS/MS analysis. Format: ADME. On the technique in general: Microsomes from liver hold many membrane-bound enzymes, among them those of drug oxidation.
Another data set has as its target Cytochrome P450 3A4 (Homo sapiens, UniProt P08684). Nature of the data set: Inhibition of CYP3A4 in human liver microsomes using midazolam as substrate after 10 mins in presence of NADPH by LC/MS/MS analysis. Format: ADME.
Data set [3] in a line: Permeability of the compound at pH 7.4 by PAMPA. Format: ADME. Particulars: read-out: permeability; call rule not given here.
In data set [4] the target is T2, Nuclear receptor subfamily 1 group I member 2 (Homo sapiens, UniProt O75469).
T2 sequence (O75469 whole entry): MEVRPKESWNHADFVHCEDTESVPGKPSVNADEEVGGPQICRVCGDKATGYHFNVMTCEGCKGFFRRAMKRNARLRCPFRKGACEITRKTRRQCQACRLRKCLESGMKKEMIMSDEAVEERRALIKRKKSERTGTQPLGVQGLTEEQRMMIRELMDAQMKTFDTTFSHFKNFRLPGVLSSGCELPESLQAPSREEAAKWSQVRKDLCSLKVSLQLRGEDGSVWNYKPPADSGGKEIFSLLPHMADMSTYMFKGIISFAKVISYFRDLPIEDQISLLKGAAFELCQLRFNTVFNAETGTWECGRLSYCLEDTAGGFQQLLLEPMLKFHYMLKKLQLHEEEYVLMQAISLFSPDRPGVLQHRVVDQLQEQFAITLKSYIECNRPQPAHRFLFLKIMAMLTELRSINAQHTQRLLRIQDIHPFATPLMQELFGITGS
Nature of the data set: Induction of human PXR assessed as CYP450 activation. It is filed as ADME.

Data set [5] has as its target Voltage-gated inwardly rectifying potassium channel KCNH2 (Homo sapiens, UniProt Q12809). Briefly: Inhibition of human ERG.
Data set [6] can be described thus: AUC(0 to infinity) in rat plasma at 1 mg/kg, iv after 5 mins to 24 hrs. It is filed as ADME, organism-based. The arrangement: dose 1 mg/kg, route intravenous, time infinity.
Data set [7] can be described thus: Cmax in rat plasma at 10 mg/kg, po after 15 mins to 24 hrs. It is filed as ADME, organism-based. Set-up: dose 10 mg/kg, route oral.
A short description of data set [8]: Plasma concentration in ICR mouse at 30 mg/kg, po after 1 hr by LC/MS/MS analysis. Format: ADME, organism-based.
Data set [9] is described as follows: Unbound drug concentration in ICR mouse brain at 30 mg/kg, po after 1 hr by LC/MS/MS analysis. Format: ADME, organism-based. The conditions noted are these: in vivo.

As usually defined, the pIC50 is −log10 of the IC50, conventionally taken in molar units. The term solubility denotes how much of the substance goes into solution per volume. The low end stands for little dissolved substance, the high end for much dissolved substance. One may read the AUC(0-inf) as the area under the concentration-time curve extrapolated to infinity. Low readings indicate less exposure, high ones more exposure. One may read the Cmax as the maximum level reached in the sampled fluid or tissue.

Cytochrome P450 2C19, sequence (P33261 whole entry): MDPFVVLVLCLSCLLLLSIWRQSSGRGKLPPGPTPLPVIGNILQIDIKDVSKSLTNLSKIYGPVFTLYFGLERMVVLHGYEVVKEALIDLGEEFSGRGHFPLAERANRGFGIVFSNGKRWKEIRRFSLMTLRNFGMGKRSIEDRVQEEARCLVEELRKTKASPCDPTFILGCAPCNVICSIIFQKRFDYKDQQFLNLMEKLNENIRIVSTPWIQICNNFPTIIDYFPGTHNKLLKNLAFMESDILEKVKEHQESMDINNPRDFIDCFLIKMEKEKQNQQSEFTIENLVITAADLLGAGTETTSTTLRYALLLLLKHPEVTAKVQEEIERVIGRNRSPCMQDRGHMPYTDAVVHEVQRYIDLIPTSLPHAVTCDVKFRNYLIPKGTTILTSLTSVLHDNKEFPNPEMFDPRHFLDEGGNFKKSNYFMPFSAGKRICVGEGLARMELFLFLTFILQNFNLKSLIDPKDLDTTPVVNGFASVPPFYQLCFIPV
Metabotropic glutamate receptor 5, sequence (P41594 whole entry): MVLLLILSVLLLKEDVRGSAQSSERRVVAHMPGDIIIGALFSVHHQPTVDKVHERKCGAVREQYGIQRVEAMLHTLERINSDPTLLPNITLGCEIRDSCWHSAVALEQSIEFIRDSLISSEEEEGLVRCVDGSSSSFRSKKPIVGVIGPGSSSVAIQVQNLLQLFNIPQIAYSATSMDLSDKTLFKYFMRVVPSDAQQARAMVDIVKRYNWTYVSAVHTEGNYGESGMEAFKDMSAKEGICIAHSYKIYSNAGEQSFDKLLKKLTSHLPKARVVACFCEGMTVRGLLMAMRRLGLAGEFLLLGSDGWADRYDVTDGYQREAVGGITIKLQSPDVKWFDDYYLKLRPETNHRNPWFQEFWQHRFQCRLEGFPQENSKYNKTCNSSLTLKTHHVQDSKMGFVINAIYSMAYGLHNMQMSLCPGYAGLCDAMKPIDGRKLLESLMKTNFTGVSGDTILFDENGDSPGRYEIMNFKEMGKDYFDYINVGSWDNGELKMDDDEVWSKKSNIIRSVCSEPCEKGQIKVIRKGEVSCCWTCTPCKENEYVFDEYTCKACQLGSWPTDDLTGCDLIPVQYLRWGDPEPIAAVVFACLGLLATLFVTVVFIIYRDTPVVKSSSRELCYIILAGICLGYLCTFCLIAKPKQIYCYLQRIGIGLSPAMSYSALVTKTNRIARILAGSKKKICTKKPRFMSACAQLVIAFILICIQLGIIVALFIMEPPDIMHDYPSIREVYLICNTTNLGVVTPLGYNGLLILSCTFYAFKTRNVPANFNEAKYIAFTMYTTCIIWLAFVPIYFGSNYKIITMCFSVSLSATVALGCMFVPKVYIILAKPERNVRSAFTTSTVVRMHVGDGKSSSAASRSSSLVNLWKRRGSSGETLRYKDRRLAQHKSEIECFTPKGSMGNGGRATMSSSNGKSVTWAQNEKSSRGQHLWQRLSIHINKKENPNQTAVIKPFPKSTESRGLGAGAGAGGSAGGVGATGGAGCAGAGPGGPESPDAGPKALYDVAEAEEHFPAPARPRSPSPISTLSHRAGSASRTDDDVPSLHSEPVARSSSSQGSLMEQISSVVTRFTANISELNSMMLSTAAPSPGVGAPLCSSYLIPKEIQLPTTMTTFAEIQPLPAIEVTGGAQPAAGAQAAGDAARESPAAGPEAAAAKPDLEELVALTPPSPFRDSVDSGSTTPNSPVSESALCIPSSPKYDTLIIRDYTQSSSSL
Cytochrome P450 3A4, sequence (P08684 whole entry): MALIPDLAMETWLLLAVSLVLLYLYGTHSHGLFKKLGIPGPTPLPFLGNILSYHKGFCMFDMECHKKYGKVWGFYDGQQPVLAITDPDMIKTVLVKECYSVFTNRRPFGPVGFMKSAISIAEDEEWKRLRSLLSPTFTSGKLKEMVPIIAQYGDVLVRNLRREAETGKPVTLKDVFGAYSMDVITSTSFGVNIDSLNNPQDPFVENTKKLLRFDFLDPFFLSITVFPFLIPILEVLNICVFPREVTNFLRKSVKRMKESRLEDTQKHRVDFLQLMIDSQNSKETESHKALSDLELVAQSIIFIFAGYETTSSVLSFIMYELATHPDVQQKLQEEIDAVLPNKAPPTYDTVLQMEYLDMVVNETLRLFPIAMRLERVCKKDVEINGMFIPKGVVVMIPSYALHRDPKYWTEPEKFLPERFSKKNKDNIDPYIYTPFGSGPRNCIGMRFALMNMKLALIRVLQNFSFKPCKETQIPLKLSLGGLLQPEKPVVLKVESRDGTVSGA
Voltage-gated inwardly rectifying potassium channel KCNH2, sequence (Q12809 whole entry): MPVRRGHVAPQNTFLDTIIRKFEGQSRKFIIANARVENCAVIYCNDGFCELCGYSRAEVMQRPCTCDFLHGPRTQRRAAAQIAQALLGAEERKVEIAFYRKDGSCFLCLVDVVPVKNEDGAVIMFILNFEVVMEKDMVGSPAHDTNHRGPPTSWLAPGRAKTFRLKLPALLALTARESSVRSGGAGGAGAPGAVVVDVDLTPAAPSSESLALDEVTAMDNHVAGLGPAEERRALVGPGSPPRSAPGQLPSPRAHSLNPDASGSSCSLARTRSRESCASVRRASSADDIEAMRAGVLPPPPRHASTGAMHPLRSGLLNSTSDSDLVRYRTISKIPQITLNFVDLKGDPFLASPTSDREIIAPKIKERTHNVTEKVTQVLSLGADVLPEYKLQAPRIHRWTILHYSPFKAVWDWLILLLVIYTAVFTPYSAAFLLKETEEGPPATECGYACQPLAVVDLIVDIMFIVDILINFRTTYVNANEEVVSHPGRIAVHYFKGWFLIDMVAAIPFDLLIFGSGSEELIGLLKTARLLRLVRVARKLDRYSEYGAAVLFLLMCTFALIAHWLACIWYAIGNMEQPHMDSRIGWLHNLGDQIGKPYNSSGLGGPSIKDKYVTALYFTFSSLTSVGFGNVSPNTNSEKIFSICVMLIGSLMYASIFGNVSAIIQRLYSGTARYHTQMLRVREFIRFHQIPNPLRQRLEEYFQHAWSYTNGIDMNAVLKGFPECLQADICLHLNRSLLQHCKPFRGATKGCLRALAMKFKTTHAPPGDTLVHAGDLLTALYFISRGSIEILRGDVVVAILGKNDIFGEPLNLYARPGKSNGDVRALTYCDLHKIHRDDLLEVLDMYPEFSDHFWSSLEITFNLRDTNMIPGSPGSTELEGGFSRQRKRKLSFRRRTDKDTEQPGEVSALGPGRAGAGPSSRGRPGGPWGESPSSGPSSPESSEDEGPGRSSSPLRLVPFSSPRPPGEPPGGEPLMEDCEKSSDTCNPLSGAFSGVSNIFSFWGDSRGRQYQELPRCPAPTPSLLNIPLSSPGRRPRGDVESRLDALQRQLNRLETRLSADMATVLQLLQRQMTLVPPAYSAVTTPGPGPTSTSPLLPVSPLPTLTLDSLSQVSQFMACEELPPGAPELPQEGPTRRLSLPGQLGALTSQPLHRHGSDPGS

Regarding `O=C(c1cc(F)cc(Cl)c1)N1CCn2nc(-c3ccc(F)cn3)cc2C1`, the pIC50 is 7.12 in data set [1]; less than 4.40 at Cytochrome P450 2A6; less than 4.40 at Cytochrome P450 2C19; less than 4.40 on Cytochrome P450 3A4; 4.82 in data set [5]. For the same molecule, the solubility in data set [2] was determined as 79 µg/mL (≈ 211 µM). Besides, the Papp in [3] is 37 ×10⁻⁶ cm/s. Moreover, the Activity result in data set [4] is given as “Not Active”. In [6], this molecule displayed an AUC(0-inf) of 7220 ng·h/mL. Further, the peak level in [7] (Cmax) was 2930 ng/mL. Further, the concentration at 1 h in data set [8] was 21.4 µM. Also, the “Drug uptake(free)” value in data set [9] turned out to be 1.38 µM.
